Reference: US8835432B2, “Heterocyclic compounds and their uses” (Amgen Inc., priority 2012, dated 2014)

Key:
PI3K d = molecular target: T1, PI3K d (Homo sapiens, UniProt O00329); test: In vitro enzyme assay, PI3K delta; format: biochemical
T1 construct: Full length p110 subunits of PI3k α, β and δ, N-terminally labeled with polyHis tag; polyHis (N); made in house; host or cells: Sf9 insect cells (baculovirus)
Protocol: (§1) Full length p110 subunits of PI3k α, β and δ, N-terminally labeled with polyHis tag, were coexpressed with p85 with Baculo virus expression vectors in sf9 insect cells. P110/p85 heterodimers were purified by sequential Ni-NTA, Q-HP, Superdex-100 chromatography. Purified α, β and δ isozymes were stored at −20° C. in 20 mM Tris, pH 8, 0.2M NaCl, 50% glycerol, 5 mM DTT, 2 mM Na cholate. Truncated PI3Kγ, residues 114-1102, N-terminally labeled with polyHis tag, was expressed with Baculo virus in Hi5 insect cells. The γ isozyme was purified by sequential Ni-NTA, Superdex-200, Q-HP chromatography. The γ isozyme was stored frozen at −80° C. in NaH2PO4, pH 8, 0.2M NaCl, 1% ethylene glycol, 2 mM β-mercaptoethanol.
(§2) Assays were performed in 25 μL with the above final concentrations of components in white polyproplyene plates (Costar 3355). Phospatidyl inositol phosphoacceptor, PtdIns(4,5)P2 P4508, was from Echelon Biosciences. The ATPase activity of the alpha and gamma isozymes was not greatly stimulated by PtdIns(4,5)P2 under these conditions and was therefore omitted from the assay of these isozymes. Test compounds were dissolved in dimethyl sulfoxide and diluted with three-fold serial dilutions. The compound in DMSO (1 μL) was added per test well, and the inhibition relative to reactions containing no compound, with and without enzyme was determined After assay incubation at rt, the reaction was stopped and residual ATP determined by addition of an equal volume of a commercial ATP bioluminescence kit (Perkin Elmer EasyLite) according to the manufacturer's instructions, and detected using a AnalystGT luminometer.

PI3K b = test: In vitro enzyme assay, PI3K beta; format: biochemical; conditions: ratio of beta to delta IC50
Protocol: as §1, §2

PI3Ka = molecular target: T2, PI3Ka (Homo sapiens, UniProt P42336); test: In vitro enzyme assay, PI3K alpha; format: biochemical
T2 construct: Full length p110 subunits of PI3k α, β and δ, N-terminally labeled with polyHis tag; polyHis (N); made in house; host or cells: Sf9 insect cells (baculovirus)
Protocol: as §1, §2

PI3Kg = molecular target: T3, PI3Kg (Homo sapiens, UniProt P48736); test: In vitro enzyme assay, PI3K gamma; format: biochemical
T3 construct: Truncated PI3Kγ, residues 114-1102, N-terminally labeled with polyHis tag; polyHis (N); made in house; host or cells: Hi5 insect cells (baculovirus)
Protocol: as §1, §2

Human B cells = Human B cells proliferation stimulated by anti-IgM; format: cell-based; conditions: Hu B Cell anti-IgM, note under the cell, read-out: on target anti-IgM (Hu B Cell anti-IgM)
Protocol: Human B Cells Proliferation Stimulate by Anti-IgM
Isolate PBMCs from Leukopac or from human fresh blood. Isolate human B cells by using Miltenyi protocol and B cell isolation kit II.-human B cells were Purified by using AutoMacs.column.
Activation of Human B Cells
Use 96 well Flat bottom plate, plate 50000/well purified B cells in B cell proliferation medium (DMEM+5% FCS, 10 mM Hepes, 50 μM 2-mercaptoethanol); 150 μL medium contain 250 ng/mL CD40L-LZ recombinant protein (Amgen) and 2 μg/mL anti-Human IgM antibody (Jackson ImmunoReseach Lab.#109-006-129), mixed with 50 μL B cell medium containing PI3K inhibitors and incubate 72 h at 37° C. incubator. After 72 h, pulse labeling B cells with 0.5-1 uCi/well ^3H thymidine for overnight ˜18 h, and harvest cell using TOM harvester.

PI3KIII = molecular target: T4, PI3KIII (Homo sapiens, UniProt Q8NEB9); test: Class III PI(3)P assay (U20S EGFP-2XFYVE cells); format: cell-based
T4 construct: host or cells: U2OS EGFP-2XFYVE cells
Protocol: (§3) GFP Assays for Detecting Inhibition of Class Ia and Class III PI3K
FYVE domains bind to PI(3)P. the majority is generated by constitutive action of PI3K Class III
Class III PI(3)P assay (U20S EGFP-2XFYVE Cells/GE Healthcare)
Wash cells with assay buffer. Treat with compounds in assay buffer 1 h. Fix and image.
Control for all 3 assays is […] Wortmannin:
PI(3)P depleted from endosomes

PI3Kb [1] = molecular target: T5, PI3Kb (Homo sapiens, UniProt P42338); test: Forkhead translocation assay (MDA MB468 Forkhead-DiversaGFP cells); format: cell-based; set-up: endogenous in cells; host or cells: MDA MB468 (Forkhead-DiversaGFP) cells; conditions: first value of the cell; MDA468 forkhead; read-out: PI3KbMDA468 FH
Protocol: as §3
Forkhead (FKHRL1) is a substrate for AKT1. It is cytoplasmic when phosphorylated by AKT (survival/growth). Inhibition of AKT (stasis/apoptosis)-forkhead translocation to the nucleus
Forkhead Translocation Assay (MDA MB468 Forkhead-DiversaGFP Cells)
Treat cells with compound in growth medium 1 h. Fix and image.

PI3Kb [2] = molecular target: T5, PI3Kb; test: In vitro enzyme assay, PI3K beta; format: biochemical; set-up: Full length p110 subunits of PI3k α, β and δ, N-terminally labeled with polyHis tag; polyHis (N); made in house; host or cells: Sf9 insect cells (baculovirus); conditions: read-out: P13K b IC50
Protocol: as §1, §2

p110δ = p110δ (Homo sapiens, UniProt O00329); conditions: cited from earlier work
protein kinases = conditions: cited from earlier work
murine model of asthma = conditions: ovalbumin-induced airway inflammation; cited from earlier work

p110δ, sequence (O00329 whole entry, species assumed): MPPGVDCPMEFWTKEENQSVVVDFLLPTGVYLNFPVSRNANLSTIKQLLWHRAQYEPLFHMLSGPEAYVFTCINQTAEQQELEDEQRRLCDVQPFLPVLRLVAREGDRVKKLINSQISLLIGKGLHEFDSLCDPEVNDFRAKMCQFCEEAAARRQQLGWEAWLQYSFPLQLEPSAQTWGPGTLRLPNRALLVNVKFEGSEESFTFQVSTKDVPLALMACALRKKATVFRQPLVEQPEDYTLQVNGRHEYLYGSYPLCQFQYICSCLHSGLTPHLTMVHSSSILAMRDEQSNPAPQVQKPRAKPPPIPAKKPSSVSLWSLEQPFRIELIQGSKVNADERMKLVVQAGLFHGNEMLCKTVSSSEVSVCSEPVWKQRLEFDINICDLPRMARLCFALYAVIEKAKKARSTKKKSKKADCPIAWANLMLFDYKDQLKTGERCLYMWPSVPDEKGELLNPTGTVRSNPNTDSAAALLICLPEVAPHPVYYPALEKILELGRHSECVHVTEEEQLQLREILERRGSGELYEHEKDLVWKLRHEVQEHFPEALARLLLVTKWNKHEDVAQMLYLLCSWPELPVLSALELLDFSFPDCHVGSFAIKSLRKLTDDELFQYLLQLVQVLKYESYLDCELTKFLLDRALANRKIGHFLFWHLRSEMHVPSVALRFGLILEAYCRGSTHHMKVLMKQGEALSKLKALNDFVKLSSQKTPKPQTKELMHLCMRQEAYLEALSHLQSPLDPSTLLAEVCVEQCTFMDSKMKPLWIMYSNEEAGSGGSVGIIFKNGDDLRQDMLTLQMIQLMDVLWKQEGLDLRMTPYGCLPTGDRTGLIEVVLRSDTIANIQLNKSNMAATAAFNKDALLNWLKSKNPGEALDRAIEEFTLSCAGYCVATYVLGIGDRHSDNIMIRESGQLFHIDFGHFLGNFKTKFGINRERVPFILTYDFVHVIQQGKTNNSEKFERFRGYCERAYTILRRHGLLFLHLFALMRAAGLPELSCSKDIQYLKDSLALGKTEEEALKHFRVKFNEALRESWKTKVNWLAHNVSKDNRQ
T3 sequence (P48736 114-1102): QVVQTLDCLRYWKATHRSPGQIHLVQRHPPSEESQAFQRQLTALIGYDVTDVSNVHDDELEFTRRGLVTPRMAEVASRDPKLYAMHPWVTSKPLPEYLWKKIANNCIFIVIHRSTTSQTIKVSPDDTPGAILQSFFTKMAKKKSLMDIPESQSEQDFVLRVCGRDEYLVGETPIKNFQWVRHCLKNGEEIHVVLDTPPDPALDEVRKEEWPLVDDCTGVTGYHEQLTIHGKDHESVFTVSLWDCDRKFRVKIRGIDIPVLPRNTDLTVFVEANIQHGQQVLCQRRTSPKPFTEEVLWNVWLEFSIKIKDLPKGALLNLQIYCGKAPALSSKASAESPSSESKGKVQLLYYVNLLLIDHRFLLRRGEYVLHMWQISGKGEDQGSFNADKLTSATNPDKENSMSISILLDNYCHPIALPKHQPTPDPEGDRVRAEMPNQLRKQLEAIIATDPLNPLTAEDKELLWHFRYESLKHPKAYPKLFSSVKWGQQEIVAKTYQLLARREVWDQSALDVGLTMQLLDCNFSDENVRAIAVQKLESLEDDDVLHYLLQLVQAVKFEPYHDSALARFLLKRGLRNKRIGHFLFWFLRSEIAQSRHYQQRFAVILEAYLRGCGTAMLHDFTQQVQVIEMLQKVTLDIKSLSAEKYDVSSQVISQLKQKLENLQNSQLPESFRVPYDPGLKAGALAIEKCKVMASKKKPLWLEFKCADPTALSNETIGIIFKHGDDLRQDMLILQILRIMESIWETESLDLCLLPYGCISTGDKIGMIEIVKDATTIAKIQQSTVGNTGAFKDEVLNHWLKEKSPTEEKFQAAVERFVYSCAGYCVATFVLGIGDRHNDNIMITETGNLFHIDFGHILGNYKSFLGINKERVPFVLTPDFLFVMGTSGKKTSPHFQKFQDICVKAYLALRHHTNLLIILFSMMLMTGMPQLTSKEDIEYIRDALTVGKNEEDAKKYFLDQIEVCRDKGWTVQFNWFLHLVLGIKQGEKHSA
T2 sequence (P42336 whole entry): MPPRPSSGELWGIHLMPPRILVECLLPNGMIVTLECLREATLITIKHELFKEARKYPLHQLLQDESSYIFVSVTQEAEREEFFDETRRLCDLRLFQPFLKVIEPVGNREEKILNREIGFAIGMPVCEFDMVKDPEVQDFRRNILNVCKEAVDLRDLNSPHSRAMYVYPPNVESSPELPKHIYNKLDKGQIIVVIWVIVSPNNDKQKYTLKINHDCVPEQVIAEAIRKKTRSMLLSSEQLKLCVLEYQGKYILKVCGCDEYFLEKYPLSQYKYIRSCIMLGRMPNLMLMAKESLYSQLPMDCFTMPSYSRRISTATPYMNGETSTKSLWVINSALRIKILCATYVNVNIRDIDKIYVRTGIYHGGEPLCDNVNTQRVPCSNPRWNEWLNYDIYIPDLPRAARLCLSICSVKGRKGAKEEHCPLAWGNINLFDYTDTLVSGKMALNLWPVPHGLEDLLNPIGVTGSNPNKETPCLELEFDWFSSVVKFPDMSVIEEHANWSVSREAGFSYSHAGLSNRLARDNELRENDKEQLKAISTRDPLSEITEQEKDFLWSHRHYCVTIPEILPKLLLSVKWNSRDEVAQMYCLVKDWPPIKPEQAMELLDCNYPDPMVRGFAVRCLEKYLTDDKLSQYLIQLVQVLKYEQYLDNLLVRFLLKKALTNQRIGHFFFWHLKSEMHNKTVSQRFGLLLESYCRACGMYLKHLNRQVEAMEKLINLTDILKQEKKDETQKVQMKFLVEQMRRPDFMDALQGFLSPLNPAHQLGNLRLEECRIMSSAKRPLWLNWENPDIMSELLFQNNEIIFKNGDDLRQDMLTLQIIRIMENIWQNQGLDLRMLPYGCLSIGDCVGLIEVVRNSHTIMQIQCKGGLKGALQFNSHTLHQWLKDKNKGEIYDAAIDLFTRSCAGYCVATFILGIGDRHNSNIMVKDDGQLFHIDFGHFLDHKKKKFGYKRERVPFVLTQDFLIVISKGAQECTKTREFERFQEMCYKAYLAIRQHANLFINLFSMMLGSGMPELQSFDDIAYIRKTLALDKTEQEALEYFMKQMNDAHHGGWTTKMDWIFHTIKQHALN
T2 sequence (P27986 whole entry partner): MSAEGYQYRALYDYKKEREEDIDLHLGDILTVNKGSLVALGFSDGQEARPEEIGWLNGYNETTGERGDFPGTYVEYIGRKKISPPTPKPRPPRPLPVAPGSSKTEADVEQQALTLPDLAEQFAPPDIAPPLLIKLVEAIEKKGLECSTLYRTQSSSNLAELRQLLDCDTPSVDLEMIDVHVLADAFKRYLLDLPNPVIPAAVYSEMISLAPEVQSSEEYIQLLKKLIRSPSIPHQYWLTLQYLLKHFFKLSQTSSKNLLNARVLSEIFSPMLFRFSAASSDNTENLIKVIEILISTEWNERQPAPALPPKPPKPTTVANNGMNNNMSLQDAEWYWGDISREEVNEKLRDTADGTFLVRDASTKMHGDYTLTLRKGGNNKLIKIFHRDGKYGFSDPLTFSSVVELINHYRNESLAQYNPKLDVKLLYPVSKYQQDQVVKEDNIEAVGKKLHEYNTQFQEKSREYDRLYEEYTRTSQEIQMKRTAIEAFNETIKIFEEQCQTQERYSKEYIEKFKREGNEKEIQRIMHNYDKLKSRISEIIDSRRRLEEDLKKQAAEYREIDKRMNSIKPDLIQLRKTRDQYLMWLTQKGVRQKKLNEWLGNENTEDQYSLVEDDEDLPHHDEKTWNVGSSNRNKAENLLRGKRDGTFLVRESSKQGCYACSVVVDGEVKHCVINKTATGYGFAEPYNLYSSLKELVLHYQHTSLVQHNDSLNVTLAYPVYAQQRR
T5 sequence (P42338 whole entry): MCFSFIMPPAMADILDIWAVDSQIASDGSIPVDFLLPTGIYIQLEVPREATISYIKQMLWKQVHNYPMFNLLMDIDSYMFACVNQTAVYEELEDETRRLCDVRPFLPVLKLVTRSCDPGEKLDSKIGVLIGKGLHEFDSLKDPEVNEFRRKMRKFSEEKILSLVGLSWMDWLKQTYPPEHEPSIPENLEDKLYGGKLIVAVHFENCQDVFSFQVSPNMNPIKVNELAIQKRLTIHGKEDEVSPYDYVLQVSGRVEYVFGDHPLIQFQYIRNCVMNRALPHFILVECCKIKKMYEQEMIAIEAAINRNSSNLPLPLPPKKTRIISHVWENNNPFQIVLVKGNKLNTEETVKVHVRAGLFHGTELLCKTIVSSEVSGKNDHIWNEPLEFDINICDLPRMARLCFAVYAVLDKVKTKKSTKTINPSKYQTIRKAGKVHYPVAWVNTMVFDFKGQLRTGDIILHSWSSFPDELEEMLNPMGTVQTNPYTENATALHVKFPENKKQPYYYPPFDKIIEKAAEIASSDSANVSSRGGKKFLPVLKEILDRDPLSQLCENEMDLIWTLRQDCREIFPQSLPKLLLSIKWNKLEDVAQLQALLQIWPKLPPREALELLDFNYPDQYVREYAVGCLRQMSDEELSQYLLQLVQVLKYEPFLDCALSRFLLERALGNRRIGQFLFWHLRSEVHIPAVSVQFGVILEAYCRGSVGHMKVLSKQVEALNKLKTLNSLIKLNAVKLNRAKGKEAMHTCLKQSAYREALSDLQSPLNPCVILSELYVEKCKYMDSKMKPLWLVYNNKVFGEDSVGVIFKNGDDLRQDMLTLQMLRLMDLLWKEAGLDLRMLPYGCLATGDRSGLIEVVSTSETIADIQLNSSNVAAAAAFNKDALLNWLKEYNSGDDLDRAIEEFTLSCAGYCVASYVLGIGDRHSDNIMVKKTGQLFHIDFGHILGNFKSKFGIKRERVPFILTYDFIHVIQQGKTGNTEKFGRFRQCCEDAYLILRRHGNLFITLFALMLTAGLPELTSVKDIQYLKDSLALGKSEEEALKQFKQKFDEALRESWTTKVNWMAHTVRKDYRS
T5 sequence (P27986 whole entry partner): as the sequence (P27986 whole entry partner) above
T1 sequence (O00329 whole entry): as the sequence (O00329 whole entry, species assumed) above
T1 sequence (P27986 whole entry partner): as the sequence (P27986 whole entry partner) above

| IC50 (PI3K d) | PI3K: b/d (PI3K b) | PI3Ka IC50 (PI3Ka) | PI3K: a/d (PI3Ka; ratio of alpha to delta IC50) | IC50 (PI3Kg) | PI3K: g/d (PI3Kg; ratio of gamma to delta IC50) | IC50 (PI3KIII) | IC50 (PI3Kb [1]) | IC50 (PI3Kb [2]) | SMILES | IC50 (Human B cells) | inhibits p110δ (p110δ) | selectivity against p110α (p110δ; delta versus p110α) | selective against p110β (p110δ; delta versus p110β) | selectivity against p110γ (p110δ; delta versus p110γ) | activity against any protein kinases tested (protein kinases) | inflammation and disease in a murine model of asthma (murine model of asthma) |
| --- | --- | --- | --- | --- | --- | --- | --- | --- | --- | --- | --- | --- | --- | --- | --- | --- |
| 0.0117 µM | 213 | 12.7000 µM | 1085 | 3.9 µM | 333 | > 10 µM | > 10 µM | 2.49 µM | C[C@H](Nc1ncnc(N)c1C#N)c1nc2ccc(F)cc2nc1-c1ccccn1 [Example 7, (S)-4-Amino-6-((1-(6-fluoro-3-(pyridin-2-yl)quinoxalin-2-yl)ethyl)amino)-pyrimidine-5-carbonitrile] | 0.0104 µM |  |  |  |  |  |  |
|  |  |  |  |  |  |  |  |  | Cc1ccccc1-n1c(Cn2cnc3c(N)ncnc32)nc2cccc(C)c2c1=O [IC87114] |  | high nanomolar range (triple digit) | greater than 100 fold | 52 fold | approx. 8 fold | no activity | significantly ameliorate inflammation and disease |
